What was measured:
[1] = Metabolic stability in human liver microsomes assessed as half life; assay type: ADME, Microsome; conditions: for t1/2: microsomes
Cytochrome P450 3A4 = Cytochrome P450 3A4 (Homo sapiens, UniProt P08684); test: (§1) Inhibition of CYP3A4 in human liver microsomes at 10 uM relative to control; assay type: ADME, Microsome; conditions: microsomes, 10 µM
[2] = target: T1, Delta-type opioid receptor (Homo sapiens, UniProt P41143); test: Antagonist activity against human DOR expressed in CHO-K1 cells assessed as maximal inhibition of forskolin-induced cAMP accumulation pretreated for 15 mins followed by forskolin addition measured after 30 mins by HitHunter cAMP assay normalized to naltrexone; assay type: functional, cell-based; conditions: filed as antagonist, time 45.0 min
Cytochrome P450 1A2 = target: T2, Cytochrome P450 1A2 (Homo sapiens, UniProt P05177); test: (§2) Inhibition of CYP1A2 in human liver microsomes at 10 uM relative to control; assay type: ADME, Microsome; conditions: microsomes, 10 µM
T2 sequence (P05177 whole entry): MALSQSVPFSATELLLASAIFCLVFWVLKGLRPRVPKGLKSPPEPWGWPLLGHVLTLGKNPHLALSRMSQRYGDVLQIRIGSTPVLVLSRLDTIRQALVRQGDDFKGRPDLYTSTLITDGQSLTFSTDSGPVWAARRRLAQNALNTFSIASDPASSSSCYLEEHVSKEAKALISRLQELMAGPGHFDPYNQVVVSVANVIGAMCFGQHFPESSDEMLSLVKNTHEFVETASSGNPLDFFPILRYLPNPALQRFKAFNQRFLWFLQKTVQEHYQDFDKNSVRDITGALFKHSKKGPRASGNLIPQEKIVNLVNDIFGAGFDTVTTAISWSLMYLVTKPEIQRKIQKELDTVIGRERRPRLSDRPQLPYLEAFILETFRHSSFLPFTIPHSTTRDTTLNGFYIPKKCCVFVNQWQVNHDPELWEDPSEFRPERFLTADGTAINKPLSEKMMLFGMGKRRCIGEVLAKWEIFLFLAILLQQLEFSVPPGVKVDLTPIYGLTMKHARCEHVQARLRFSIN

Cytochrome P450 2C19 = Cytochrome P450 2C19 (Homo sapiens, UniProt P33261); test: (§3) Inhibition of CYP2C19 in human liver microsomes at 10 uM relative to control; assay type: ADME, Microsome; conditions: microsomes, 10 µM
Cytochrome P450 2C9 = Cytochrome P450 2C9 (Homo sapiens, UniProt P11712); test: (§4) Inhibition of CYP2C9 in human liver microsomes at 10 uM relative to control; assay type: ADME, Microsome; conditions: microsomes, 10 µM
[3] = Metabolic stability in mouse liver microsomes assessed as half life; assay type: ADME, Microsome; conditions: for t1/2: microsomes
Cytochrome P450 2D6 = Cytochrome P450 2D6 (Homo sapiens, UniProt P10635); test: (§5) Inhibition of CYP2D6 in human liver microsomes at 10 uM relative to control; assay type: ADME, Microsome; conditions: microsomes, 10 µM
[4] = target: T1, Delta-type opioid receptor
[5] = target: Kappa-type opioid receptor (Homo sapiens, UniProt P41145); assay type: functional, cell-based, CHO-K1
Mu-type opioid receptor = Mu-type opioid receptor (Homo sapiens, UniProt P35372); assay type: functional, cell-based, CHO-K1
[6] = target: Glutamate [NMDA] receptor; test: Inhibition of NMDA receptor (unknown origin); assay type: protein-complex assay, Homo sapiens
[7] = target: T3, Sodium-dependent noradrenaline transporter (Homo sapiens, UniProt P23975); test: Inhibition of Norepinephrine transporter (unknown origin)
[8] = target: T4, Sodium-dependent dopamine transporter (Homo sapiens, UniProt Q01959); test: Inhibition of Dopamine transporter (unknown origin)
[9] = target: Voltage-gated inwardly rectifying potassium channel KCNH2 (Homo sapiens, UniProt Q12809); test: Inhibition of hERG channel; assay type: toxicity
[10] = target: T5, Rho-associated protein kinase 1 (Homo sapiens, UniProt Q13464); test: Inhibition of ROCK1 (unknown origin)
[11] = Metabolic stability in mouse liver microsomes assessed as intrinsic clearance; assay type: ADME, Microsome
hERG (KCNH2) = hERG (KCNH2) (Homo sapiens, UniProt Q12809); test: Inhibition of hERG channel assessed as maximal response; assay type: toxicity; conditions: read-out: Imax
[12] = Cmax in Sprague-Dawley rat plasma at 1 mg/kg, ip by LC-MS/MS analysis; assay type: ADME, organism-based
[13] = Cmax in Sprague-Dawley rat plasma at 2 mg/kg, ip by LC-MS/MS analysis; assay type: ADME, organism-based
[14] = Half life in Sprague-Dawley rat plasma at 2 mg/kg, ip by LC-MS/MS analysis; assay type: ADME, organism-based
[15] = Drug uptake in Sprague-Dawley rat brain at 1 mg/kg, ip by LC-MS/MS analysis; assay type: ADME, organism-based; conditions: in vivo
[16] = Half life in Sprague-Dawley rat plasma at 1 mg/kg, ip by LC-MS/MS analysis; assay type: ADME, organism-based
[17] = target: D(2) dopamine receptor (Homo sapiens) (UniProt P14416); test: Antagonist activity at D2S receptor (unknown origin) assessed as maximal response; conditions: filed as antagonist
[18] = target: T4, Sodium-dependent dopamine transporter; test: Inhibition of Dopamine transporter (unknown origin) assessed as maximal response
[19] = target: T3, Sodium-dependent noradrenaline transporter; test: Inhibition of Norepinephrine transporter (unknown origin) assessed as maximal response
[20] = target: T5, Rho-associated protein kinase 1; test: Inhibition of ROCK1 (unknown origin) assessed as maximal response
[21] = target: Alpha-1A adrenergic receptor (Homo sapiens) (UniProt P35348); test: Antagonist activity at alpha1A adrenoreceptor (unknown origin) assessed as maximal response; conditions: filed as antagonist
[22] = target: Glutamate [NMDA] receptor (Homo sapiens) (UniProt Q05586+Q12879+Q13224+O15399+O60391+Q14957+Q8TCU5); test: Inhibition of NMDA receptor (unknown origin) assessed as maximal response; assay type: protein-complex assay
CYP3A4 = CYP3A4 (Homo sapiens, UniProt P08684); test: as §1; assay type: ADME, Microsome; conditions: liver microsomes
CYP1A2 = CYP1A2 (Homo sapiens, UniProt P05177); test: as §2; assay type: ADME, Microsome; conditions: liver microsomes
CYP2C19 = CYP2C19 (Homo sapiens, UniProt P33261); test: as §3; assay type: ADME, Microsome; conditions: liver microsomes
CYP2C9 = CYP2C9 (Homo sapiens, UniProt P11712); test: as §4; assay type: ADME, Microsome; conditions: liver microsomes
CYP2D6 = CYP2D6 (Homo sapiens, UniProt P10635); test: as §5; assay type: ADME, Microsome; conditions: liver microsomes
Sequence of CYP2D6 (P10635 whole entry): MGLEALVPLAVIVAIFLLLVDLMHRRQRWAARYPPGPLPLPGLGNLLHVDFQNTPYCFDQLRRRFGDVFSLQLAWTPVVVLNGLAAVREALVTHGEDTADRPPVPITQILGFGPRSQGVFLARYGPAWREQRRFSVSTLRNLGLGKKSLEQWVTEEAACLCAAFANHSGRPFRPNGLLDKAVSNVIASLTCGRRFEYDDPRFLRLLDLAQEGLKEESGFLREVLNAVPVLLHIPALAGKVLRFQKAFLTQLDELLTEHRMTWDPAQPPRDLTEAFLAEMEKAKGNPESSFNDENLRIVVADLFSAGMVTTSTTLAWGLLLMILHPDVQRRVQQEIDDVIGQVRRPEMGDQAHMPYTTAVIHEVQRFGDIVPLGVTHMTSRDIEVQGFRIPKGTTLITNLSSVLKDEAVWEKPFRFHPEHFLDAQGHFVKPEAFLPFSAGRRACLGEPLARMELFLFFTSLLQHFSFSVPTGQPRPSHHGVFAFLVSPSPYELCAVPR

Sequence of Mu-type opioid receptor (P35372 whole entry): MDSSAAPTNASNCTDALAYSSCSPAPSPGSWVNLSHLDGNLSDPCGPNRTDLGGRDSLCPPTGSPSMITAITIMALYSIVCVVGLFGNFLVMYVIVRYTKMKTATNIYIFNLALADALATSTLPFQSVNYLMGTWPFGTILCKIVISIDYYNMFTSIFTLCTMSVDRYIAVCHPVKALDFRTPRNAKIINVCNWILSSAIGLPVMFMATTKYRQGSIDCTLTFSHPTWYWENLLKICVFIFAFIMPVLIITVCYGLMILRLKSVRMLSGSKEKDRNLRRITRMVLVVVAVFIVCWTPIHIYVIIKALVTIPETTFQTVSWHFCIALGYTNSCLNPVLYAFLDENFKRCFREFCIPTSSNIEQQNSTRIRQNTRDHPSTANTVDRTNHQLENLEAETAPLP
Sequence of Cytochrome P450 3A4 (P08684 whole entry): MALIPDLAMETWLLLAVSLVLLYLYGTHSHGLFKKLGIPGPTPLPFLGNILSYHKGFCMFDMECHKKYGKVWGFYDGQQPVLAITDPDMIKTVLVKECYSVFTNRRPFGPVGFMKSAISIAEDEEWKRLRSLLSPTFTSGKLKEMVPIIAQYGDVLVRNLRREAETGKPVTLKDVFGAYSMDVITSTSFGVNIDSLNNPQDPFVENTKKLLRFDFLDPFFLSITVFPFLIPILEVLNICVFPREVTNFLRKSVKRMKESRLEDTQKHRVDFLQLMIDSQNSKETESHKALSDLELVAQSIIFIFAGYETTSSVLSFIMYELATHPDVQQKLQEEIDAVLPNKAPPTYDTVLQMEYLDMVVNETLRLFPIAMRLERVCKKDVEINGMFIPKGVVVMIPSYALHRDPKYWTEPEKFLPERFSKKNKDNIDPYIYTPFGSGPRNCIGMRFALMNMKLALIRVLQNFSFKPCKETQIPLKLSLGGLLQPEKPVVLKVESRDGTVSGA
T1 sequence (P41143 whole entry): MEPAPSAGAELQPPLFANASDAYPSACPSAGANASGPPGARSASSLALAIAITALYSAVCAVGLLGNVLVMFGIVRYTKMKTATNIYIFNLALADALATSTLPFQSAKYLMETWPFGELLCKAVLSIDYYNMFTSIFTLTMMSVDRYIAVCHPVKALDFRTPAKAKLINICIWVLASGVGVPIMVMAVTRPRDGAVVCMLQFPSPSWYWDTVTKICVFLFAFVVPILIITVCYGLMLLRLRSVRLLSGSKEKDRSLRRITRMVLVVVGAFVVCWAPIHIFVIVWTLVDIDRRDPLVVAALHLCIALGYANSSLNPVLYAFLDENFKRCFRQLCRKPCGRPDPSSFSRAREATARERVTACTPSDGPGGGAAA
Sequence of Cytochrome P450 2D6 (P10635 whole entry): as the sequence (P10635 whole entry) above
Sequence of Cytochrome P450 2C19 (P33261 whole entry): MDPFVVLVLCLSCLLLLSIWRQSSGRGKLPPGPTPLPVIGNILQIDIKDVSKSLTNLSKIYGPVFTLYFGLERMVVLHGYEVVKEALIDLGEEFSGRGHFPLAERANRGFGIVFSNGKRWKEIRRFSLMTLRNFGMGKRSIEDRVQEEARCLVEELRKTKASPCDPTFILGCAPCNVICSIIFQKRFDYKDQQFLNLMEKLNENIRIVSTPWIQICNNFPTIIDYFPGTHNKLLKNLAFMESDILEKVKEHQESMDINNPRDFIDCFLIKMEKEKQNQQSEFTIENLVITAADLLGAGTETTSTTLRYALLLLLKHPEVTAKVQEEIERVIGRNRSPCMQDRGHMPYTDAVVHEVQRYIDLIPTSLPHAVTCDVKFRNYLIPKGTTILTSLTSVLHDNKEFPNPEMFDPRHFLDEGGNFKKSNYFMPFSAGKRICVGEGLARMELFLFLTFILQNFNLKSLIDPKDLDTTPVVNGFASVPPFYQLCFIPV
Sequence of Cytochrome P450 2C9 (P11712 whole entry): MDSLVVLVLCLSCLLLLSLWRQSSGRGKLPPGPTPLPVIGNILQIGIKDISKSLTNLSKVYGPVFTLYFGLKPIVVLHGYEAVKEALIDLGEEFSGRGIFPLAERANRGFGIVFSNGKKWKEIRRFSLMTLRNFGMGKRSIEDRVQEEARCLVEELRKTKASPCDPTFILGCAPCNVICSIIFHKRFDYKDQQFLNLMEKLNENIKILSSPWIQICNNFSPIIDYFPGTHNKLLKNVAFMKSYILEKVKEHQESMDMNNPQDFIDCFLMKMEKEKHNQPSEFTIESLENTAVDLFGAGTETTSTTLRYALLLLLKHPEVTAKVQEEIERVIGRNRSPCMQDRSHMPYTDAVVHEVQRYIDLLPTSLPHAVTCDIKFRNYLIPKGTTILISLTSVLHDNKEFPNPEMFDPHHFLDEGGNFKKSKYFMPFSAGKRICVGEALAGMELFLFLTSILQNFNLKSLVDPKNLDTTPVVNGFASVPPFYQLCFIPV
Sequence of Kappa-type opioid receptor (P41145 whole entry): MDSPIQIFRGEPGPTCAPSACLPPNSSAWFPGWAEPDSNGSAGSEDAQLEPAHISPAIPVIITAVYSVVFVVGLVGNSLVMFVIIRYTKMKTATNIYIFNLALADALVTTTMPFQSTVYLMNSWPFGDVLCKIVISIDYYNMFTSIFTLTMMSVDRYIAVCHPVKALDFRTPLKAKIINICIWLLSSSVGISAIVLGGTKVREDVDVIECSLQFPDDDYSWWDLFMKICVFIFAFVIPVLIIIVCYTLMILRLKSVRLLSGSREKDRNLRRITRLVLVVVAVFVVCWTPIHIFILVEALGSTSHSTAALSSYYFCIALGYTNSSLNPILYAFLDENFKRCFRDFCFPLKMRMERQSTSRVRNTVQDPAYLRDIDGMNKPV
T3 sequence (P23975 whole entry): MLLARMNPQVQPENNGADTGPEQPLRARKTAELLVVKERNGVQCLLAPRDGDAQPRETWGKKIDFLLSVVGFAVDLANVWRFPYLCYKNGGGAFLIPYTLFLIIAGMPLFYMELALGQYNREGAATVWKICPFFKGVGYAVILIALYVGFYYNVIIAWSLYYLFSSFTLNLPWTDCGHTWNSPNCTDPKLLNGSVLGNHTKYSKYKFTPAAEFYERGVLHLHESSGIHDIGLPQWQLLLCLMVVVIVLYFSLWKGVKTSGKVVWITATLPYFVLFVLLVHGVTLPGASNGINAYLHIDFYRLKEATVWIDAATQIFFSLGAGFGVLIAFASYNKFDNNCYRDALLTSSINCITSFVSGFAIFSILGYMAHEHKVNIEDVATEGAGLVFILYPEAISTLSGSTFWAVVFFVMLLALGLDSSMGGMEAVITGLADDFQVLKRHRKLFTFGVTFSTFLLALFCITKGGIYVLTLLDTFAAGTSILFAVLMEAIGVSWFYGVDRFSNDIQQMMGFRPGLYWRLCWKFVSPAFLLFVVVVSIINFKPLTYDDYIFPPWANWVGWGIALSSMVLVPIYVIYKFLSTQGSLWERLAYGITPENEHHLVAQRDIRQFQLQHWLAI
T4 sequence (Q01959 whole entry): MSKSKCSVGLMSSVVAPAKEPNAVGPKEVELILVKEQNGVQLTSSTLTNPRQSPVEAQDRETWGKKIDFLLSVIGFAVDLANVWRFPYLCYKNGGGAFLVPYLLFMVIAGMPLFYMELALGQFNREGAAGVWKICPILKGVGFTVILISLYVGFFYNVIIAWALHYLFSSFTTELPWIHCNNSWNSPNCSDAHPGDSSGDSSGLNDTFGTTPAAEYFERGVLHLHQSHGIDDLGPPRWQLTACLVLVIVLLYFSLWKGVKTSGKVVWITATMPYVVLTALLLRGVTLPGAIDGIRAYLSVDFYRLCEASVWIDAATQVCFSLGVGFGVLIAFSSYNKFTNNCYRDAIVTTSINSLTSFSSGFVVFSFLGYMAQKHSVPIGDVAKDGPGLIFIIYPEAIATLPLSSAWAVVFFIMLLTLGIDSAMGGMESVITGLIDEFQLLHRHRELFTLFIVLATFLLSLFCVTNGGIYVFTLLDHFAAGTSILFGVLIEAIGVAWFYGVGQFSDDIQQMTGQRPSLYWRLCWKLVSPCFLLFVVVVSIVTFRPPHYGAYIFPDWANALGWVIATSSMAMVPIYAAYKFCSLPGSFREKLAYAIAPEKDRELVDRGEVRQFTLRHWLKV
Sequence of D(2) dopamine receptor (Homo sapiens) (P14416 whole entry): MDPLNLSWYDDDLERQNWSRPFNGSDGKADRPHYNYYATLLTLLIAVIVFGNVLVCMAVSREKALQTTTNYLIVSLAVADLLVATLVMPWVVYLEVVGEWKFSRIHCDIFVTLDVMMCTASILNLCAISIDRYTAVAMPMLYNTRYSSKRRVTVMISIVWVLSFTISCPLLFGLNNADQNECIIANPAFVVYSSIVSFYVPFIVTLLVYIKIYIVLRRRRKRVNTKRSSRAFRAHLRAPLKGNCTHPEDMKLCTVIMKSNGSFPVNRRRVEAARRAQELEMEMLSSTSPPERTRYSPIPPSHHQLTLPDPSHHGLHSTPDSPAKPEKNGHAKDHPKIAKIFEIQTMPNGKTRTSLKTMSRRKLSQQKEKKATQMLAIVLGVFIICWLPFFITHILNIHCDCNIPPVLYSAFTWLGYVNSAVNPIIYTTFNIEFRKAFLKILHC
Sequence of CYP3A4 (P08684 whole entry): as the sequence (P08684 whole entry) above

| SMILES | t1/2 [1] [min] | inhibition (INH) (Cytochrome P450 3A4) [%] | Imax [2] [%] | inhibition (INH) (Cytochrome P450 1A2) [%] | inhibition (INH) (Cytochrome P450 2C19) [%] | inhibition (INH) (Cytochrome P450 2C9) [%] | t1/2 [3] [min] | inhibition (INH) (Cytochrome P450 2D6) [%] | IC50 (Mu-type opioid receptor) [nM] | also measured |
| --- | --- | --- | --- | --- | --- | --- | --- | --- | --- | --- |
| COc1cc(CNCCc2ccccc2)ccc1Oc1ccc(C(N)=O)cn1 | > 145 | 7.8 | 157 | 1 | 1.6 | 13.1 | 41.9 | 61.2 |  |  |
| C=C1CC[C@@]2(O)[C@H]3Cc4ccc(O)c5c4[C@@]2(CCN3CC2CC2)[C@H]1O5 | > 145 | 0.2 |  | 0 | 0 | 0 | 87.1 | 68.2 |  |  |
| COc1cc(CNC2Cc3ccccc3C2)ccc1Oc1ccc(C(N)=O)cn1 |  |  | 168 |  |  |  |  |  | 0.398 | IC50 [4]: 0.631 nM; IC50 [5]: 10 nM |
| CC(C)(NC(=O)C1=C(O)[C@@H]2Oc3c(O)ccc4c3[C@@]23CCN(CC2CC2)[C@H](C4)[C@]3(O)C1)c1nc(-c2ccccc2)no1 [NALDEMEDINE] |  |  |  |  |  |  |  |  | 3.16 |  |
| NC(=O)c1ccc(Oc2ccc(CNCCc3ccccc3)cc2Cl)nc1 | 110.2 | 0 | 158 | 12.1 | 9.1 | 4.8 | 13.6 | 45.4 | 1.26 |  |
| NC(=O)c1ccc(Oc2ccc(CNCCc3ccccc3)cc2OCc2ccccc2)nc1 |  |  | 152 |  |  |  |  |  | 3.16 | IC50 [4]: 3.98 nM |
| NC(=O)c1ccc(Oc2ccc(CNCCc3ccccc3)cc2)cc1 | > 145 | 0 |  | 0 | 27.7 | 9.5 | 7.6 | 66.4 |  | IC50 [5]: 10 nM |
| COc1cc(CNCCC2CCCCC2)ccc1Oc1ccc(C(N)=O)cn1 |  |  |  |  |  |  |  |  | 3.16 |  |
| NC(=O)c1ccc(Oc2ccc(CNCCc3ccccc3)cc2)nc1 [listing 1 of 2 here] | > 145 | 6.8 |  | 0.6 | 11.6 |  | 62.9 | 72.7 |  | IC50 [6]: 4.98 µM; IC50 [7]: 1500 nM; IC50 [8]: 3.02 µM; IC50 [9]: 5.55 µM; IC50 [10]: 3.74 µM; CLH [11]: 22.05 µL/min/mg; Emax (hERG (KCNH2)): 63.7% |
| Cl.NC(=O)c1ccc(Oc2ccc(CNCCc3ccccc3)cc2)nc1 |  |  |  |  |  |  |  |  |  | Cmax [12]: 92.8 ng/mL; Cmax [13]: 182 ng/mL; half-life [14]: 20.9 min; Drug uptake [15]: Not_active; half-life [16]: 91.2 min |
| COc1cc(CNCCC(C)C)ccc1Oc1ccc(C(N)=O)cn1 | > 145 | 3.8 | 187 | 0 | 21.7 | 9.7 | > 145 | 35.2 | 2 | IC50 [4]: 5.01 nM |
| C=CCN1CC[C@]23c4c5ccc(O)c4O[C@H]2[C@@H](OCCOCCOCCOCCOCCOCCOCCOC)CC[C@@]3(O)[C@H]1C5 |  |  | 103 |  |  |  |  |  |  |  |
| C=CC[N+]1(C)CC[C@]23c4c5ccc(O)c4O[C@H]2C(=O)CC[C@@]3(O)[C@H]1C5 (stereo partly drawn) [NALOXONE METHIODIDE] |  |  |  |  |  |  |  |  | 631 |  |
| C=CCN1CC[C@]23c4c5ccc(O)c4O[C@H]2C(=O)CC[C@@]3(O)[C@H]1C5 [NALOXONE] |  |  |  |  |  |  |  |  |  | half-life [14]: 20.9 min |
| NC(=O)c1ccc(Oc2ccc(CNCCc3ccccc3)cc2)nc1 [listing 2 of 2 here] |  |  | 230 |  |  |  |  |  |  | Emax [17]: 99.4%; Imax [18]: 71.5%; Imax [19]: 83.9%; Imax [20]: 76.1%; Imax [21]: 99.9%; Imax [22]: 64.3% |
| C[C@H]1CN(CC[C@H](O)C2CCCCC2)CC[C@@]1(C)c1cccc(O)c1 |  |  | 155 |  |  |  |  |  |  | half-life ([1]; liver microsomes): 6.4 min; IC50 [4]: 3.98 nM; inhibition at 10 µM (CYP3A4): 0%; inhibition at 10 µM (CYP1A2): 14.5%; inhibition at 10 µM (CYP2C19): 35.1%; inhibition at 10 µM (CYP2C9): 11.9%; half-life ([3]; liver microsomes): 1.9 min; inhibition at 10 µM (CYP2D6): 86.4% |
